From patent publication US20160166676A1 (priority 2013, published 2016)

How the values were obtained:
[1] = tested on: CTLL-2 cells; type: cell-based
[2] = tested on: BMDCs infected with Influenza A virus; type: cell-based

DRGWGNGCGLFGKG [FLV IS mono/1] was tested, and the “proliferation of CTLL-2 cells” value [1] was “has no effect”.
With “GLFGAIAGFIENGWEGCGGEKEKEK [IN F#2 monomer]” the “effect of mixing the monomer with the dimeric peptide on the suppressive activity of the dimer” value [1] was “completely removes the suppressive activity of the dimers” and the “proliferation of CTLL-2 cells” value [1] was “has no effect”.
For “GLFGAIAGFIENGWEGGGGEKEKEK [INF F#2 C17G]”, the “interferon response to influenza infection in vitro” value [2] was “enhances the interferon response”.
